This experiment deals with bladder smooth muscle. Description: Contraction studies on isolated rat bladder strips with electrical field stimulation. As to conditions: isolated bladder tissue. The experiment is classed as cell-based, Sprague-Dawley rat. The protocol:
Bladder strips from (male/female) Sprague-Dawley (Charles River) rat bladders were mounted in 10 ml tissue baths maintained at 37 C, containing 10 ml of a saline solution consisting of: NaCl (118.5 mM), KCl (4.8 mM), NaHCO3 (25 mM), KH2PO4 (1.2 mM), MgSO4 (1.2 mM), CaCl2 (2.5 mM), and glucose (11.0 mM). The bladder strips were aerated with a mixture of 95% O2 and 5% CO2. The tissues were initially equilibrated for one h with 1 g. resting weight. The control response to 67 mM KCl was then determined. Electrical field stimulation (EFS) was provided through platinum electrodes of 1.14 cm^2 surface area located one cm apart on either side of the tissue. Stimulation to the platinum electrodes was provided by a GRASS Medical Instruments (Quincy, Mass.) S88 Square Pulse Stimulator set to deliver 10 V pulses with a 0.5 ms pulse duration in a pulse train of 10 seconds at either 1, 2, 4, or 8 Hz.
As for `CCCCC/C=C\C/C=C\CC1OC1C/C=C\CCCC(=O)O` (stereo not shown) [8,9-EET, 8,9-epoxyeicosatrienoic acid], the “effect on bladder smooth muscle stimulated by low frequency electric fields (relaxation)” value (“effect” below) is on record as “no effects”.

Consider `CCCCC/C=C\CC1OC1C/C=C\C/C=C\CCCC(=O)O` (stereo not shown) [11,12-EET, 11,12-epoxyeicosatrienoic acid], for which the “effect” value is reported as “no effects”.

Consider `CCCCCC(O)C(O)CC=CCC=CCC=CCCCC(=O)O` (stereo not shown) [14,15-DHET, 14,15-dihydroxyeicosatrienoic acid], for which the “effect” value was “no effects”.

Consider `CCCCCC1OC1CC=CCC=CCC=CCCCC(=O)O` (stereo not shown) [14,15-EET, 14,15-epoxyeicosatrienoic acid], for which the “effect” value was “relaxes bladder smooth muscle”.

The values above are taken from patent US20090082402A1, “Methods of treating genitourinary disorders using inhibitors of soluble epoxide hydrolase” (Roche Palo Alto LLC, priority 2006, published 2009).
